According to patent US8420598B2, “Mono modified exendin with polyethylene glycol or its derivatives and uses thereof” (B & L Delipharm Corp., priority 2007, dated 2013):
Read-outs that look alike come from different tables or passages of the source.

Key:
[1] = system: db/db mice; assay: Measurement of anti-diabetic activity in animals (blood glucose monitoring); format: in vivo; details: for time blood glucose kept at normal levels (<150 mg/dL) after injection: s.c., same dosage, db/db mice
[2] = rat, in vivo, sc
Procedure: SD rats weighing 200 g were subcutaneously injected with samples at a dose of 1 nmol/rat (4.18 μg/rat), followed by sampling blood through a tube inserted into the jugular vein. The blood samples were monitored for drug level using an ELISA kit.

[3] = system: db/db mice; assay: Animal model test: oral glucose tolerance after s.c. injection; format: in vivo; details: 1 nmol/kg s.c. 30 min before oral glucose, FIG. 8
Procedure: 30 min before, at the time of, and 15, 30, 60, 120 and 180 min after the oral administration of glucose, blood samples were taken from the tail vein and monitored for glucose level.

[4] = system: pancreatic islet cells of Sprague Dawley rats; assay: Assay for promoting insulin secretion (insulin ELISA); format: cell-based; details: for EC50 / insulin secretory capacity: rat islet cells, 0.1-100 nM; for EC50: 16.7 mM glucose, 2 hours; for insulin secretory capacity: FIG. 5
Procedure: Cells used for this assay were pancreatic islet cells of Sprague Dawley rats, which could be isolated by collagenase digestion and then Ficoll gradient centrifugation. After being cultured for 2˜3 days in an incubator, the isolated pancreatic islet cells were suspended in 1 ml of KRH buffer (16.7 mM glucose) at a density of 20 cells per well into 24-well plates. […] Then, […] of the culture was taken from each well and analyzed for insulin level using an insulin ELISA kit.

[5] = rat, in vivo, iv

**Q.** Which “time blood glucose kept at normal levels (<150 mg/dL) after injection” value (“time blood glucose kept at normal levels” below) [1] does the source give for “PEG5k-exendin-4: exendin-4 modified at lysine-27 with 5 kDa mPEG-SPA, Example 2” here?
**A.** Its value is 12 h.

**Q.** For “Lys^27-PEG2k-exendin-4: exendin-4 modified at lysine-27 with 2 kDa PEG (mPEG-SPA), Example 2”, which “time blood glucose kept at normal levels” value [1] is on record?
**A.** The value was “about 6 hours”.

**Q.** What about the “time to reach basal line (<2 ng/mL) after administration” value [2] of the same substance?
**A.** The value was 4 h.

**Q.** What about the “activity by area under the glucose curve 0 to 180 min” value [3] of the same substance?
**A.** Its value is “activity similar to that of natural exendin-4”.

**Q.** What about the EC50 [4] of the same substance?
**A.** Its EC50 is 3.11 nM.

**Q.** And the insulin secretory capacity [4]?
**A.** Its insulin secretory capacity is “superior to that of the other modified exendin-4, and similar to that of natural exendin-4”.

**Q.** For “PEG20k-exendin-4: exendin-4 modified at lysine-27 with 20 kDa mPEG-SPA, Example 2”, which “time blood glucose kept at normal levels” value [1] is on record?
**A.** Its value is “about 36 hours”.

**Q.** What about the Elimination Half Life [2] of the same substance?
**A.** The Elimination Half Life was 22.0 ± 1.7 h.

**Q.** What about the “residual activity (insulin secretion)” value ([4]; 10 nM, relative to natural exendin-4, FIG. 9) of the same substance?
**A.** The value was at least 40%.

**Q.** For “N^ter-PEG2k-exendin-4: exendin-4 modified at the N-terminus with 2 kDa mPEG-propionaldehyde, Example 1”, which “activity by area under the glucose curve 0 to 180 min” value [3] is on record?
**A.** Its value is “low effects”.

**Q.** And the EC50 [4]?
**A.** The EC50 was 136 nM.

**Q.** And the insulin secretory capacity [4]?
**A.** Its insulin secretory capacity is “low insulin secretory capacity”.

**Q.** Which “duration of medicinal efficacy” value ([1]; dose of 5 nmol/kg) does the source give for “PEG23k-Exendin-4 (tri-branched): exendin-4 modified at lysine-27 with 23 kDa tri-branched PEG, Example 3” here?
**A.** Its value is 12 to 18 h.

**Q.** And the “duration of medicinal efficacy” value ([1]; dose of 10 nmol/kg)?
**A.** Its value is 36 to 48 h.

**Q.** And the “duration of medicinal efficacy” value ([1]; dose of 20 nmol/kg)?
**A.** Its value is 72 to 96 h.

**Q.** And the “duration of useful medicinal effects” value ([1]; dose of 50 nmol/kg)?
**A.** Its value is at most 120 h.

**Q.** And the AUC [5]?
**A.** Its AUC is 7659 ± 1365 ng·h/mL.

**Q.** What about the “Elimination Half Life” value [5] of the same substance?
**A.** The value was 25.1 ± 9.1 h.

**Q.** What about the “Volume of Distribution” value [5] of the same substance?
**A.** The value was 9.41 ± 1.57 mL.

**Q.** And the “promotion of insulin secretion, dose dependence” value ([4]; 0.1, 1, 10 and 100 nM, FIG. 16)?
**A.** Its value is “promote insulin secretion in a dose-dependent manner”.

**Q.** Which results are given for “PEG20k-Exendin-4 (bi-branched): exendin-4 modified with 20 kDa bi-branched PEG, Example 3”?
**A.** time blood glucose kept at normal levels (<150 mg/dL) after injection [1]: about 8 hours; AUC [5]: 5717 ± 1015 ng·h/mL; Elimination Half Life [5]: 28.0 ± 10.4 h; Volume of Distribution [5]: 25.45 ± 16.84 mL

**Q.** For “PEG10k-exendin-4: exendin-4 modified at lysine-27 with 10 kDa mPEG-SPA, Example 2”, which “time blood glucose kept at normal levels” value [1] is on record?
**A.** Its value is 18 h.
